Results: patent US20240325420A1, “COMPOSITION INCLUDING PAEONIFLORIN FOR PREVENTION OR TREATMENT OF CACHEXIA AND MUSCLE LOSS” (CHUNG ANG UNIVERSITY INDUSTRY ACADEMIC COOPERATION …, priority 2021, published 2024)

Columns and labels:
Format in all cases: in vivo
[1] = tested on: Balb/c mice with cisplatin-induced cachexia; assay: Skeletal muscle function test in cisplatin-treated Balb/c mice; conditions: oral paeoniflorin
Protocol: The animal experiments were performed in accordance with internationally accepted principles for laboratory animal use and care, and the corresponding study protocol was reviewed and approved by the Institutional Animal Care and Use Committee (IACUC) at Chung-Ang University (approval #2021-00022). Four-week-old female C57BL/6 mice and Balb/c mice were purchased from Raonbio Inc. (Yongin, Korea) and were provided with standard laboratory diet and water ad libitum in the animal facility of Chung-Ang University. After a week of acclimation, the mice were intraperitoneally injected three times with 3 mg/kg/day cisplatin, suspended in 200 μL saline, every other day. […]
A skeletal muscle function test was conducted one day before euthanasia. Muscle strength of each mouse was measured by the grip strength of front paws, and endurance of each mouse was measured by treadmill running time until exhaustion. Motor coordination was measured by retention time on a rotating cylinder with a diameter of 3 cm (Castro and Kuang, 2017). The grip strength of each mouse was measured using a grip strength meter (Bio-GS3, Bioseb, Vitrolles, France). The treadmill running time of each mouse was measured on a treadmill (Exer-3/6, Columbus Instruments, […], USA). The ability of each mouse to stay on a rotating cylinder was measured using a rotarod apparatus (Panlab, Barcelona, Spain).

[2] = tested on: muscle-specific ubiquitin E3 ligases (MuRF1 and MAFbx); assay: mRNA levels of MuRF1 and MAFbx in gastrocnemius muscle by real-time PCR; conditions: C57BL/6 mice, cisplatin-treated, Pae 10 and Pae 20 vs vehicle, FIG. 5
Protocol: (§1) In addition, cisplatin-treated mice orally administered the same volume of distilled water were designated as the vehicle group. After completion of drug treatment, the mice of each group were euthanized with 10 mg/kg alfaxalone (Jurox, Rutherford, Australia). Blood was collected in test tubes containing EDTA, and centrifuged, and plasma was separated therefrom. Gastrocnemius and quadriceps skeletal muscles were dissected and weighed. The skeletal muscles were rapidly frozen in liquid nitrogen to be used for RT-qPCR, Western blotting, and ELISA.
Total RNA was isolated from skeletal muscle using Qiazol (Qiagen, Germany), and then the mRNA levels of pro-inflammatory cytokines and muscle-specific ubiquitin E3 ligases (MuRF1 and MAFbx) were measured by real-time PCR.
(§2) In order to measure the mRNA and protein levels of major factors involved in muscle loss, muscle contraction, and muscle differentiation, the mRNA and protein levels in the skeletal muscle tissues from C57BL/6 mice were measured by real-time PCR and Western blotting.

[3] = tested on: muscle-specific ubiquitin E3 ligases (MuRF1 and MAFbx); assay: Protein levels of MuRF1 and MAFbx in gastrocnemius muscle by Western blotting; conditions: C57BL/6 mice, cisplatin-treated, Pae 10 and Pae 20 vs vehicle
Protocol: as §1
(§3) Proteins were extracted from skeletal muscle using NucleoSpin kits (Macherey-Nagel, Duren, Germany) and quantified using the BCA Protein Assay Kit (Pierce, Rockford, IL, USA). Anti-β-actin antibody was used to quantify protein loading. For myosin protein (MyHC, myosin heavy chain), myogenic factor (MyoD), and NF-κB signaling system (p-IKK, IKK, p-IκB, and IκB), protein levels in the gastrocnemius muscle were measured by Western blotting. Band intensities were quantified using ImageJ software (NIH, Bethesda, MD, USA).
as §2

[4] = tested on: myosin heavy chain (MyHC) and myoblast determination protein (MyoD); assay: Protein levels of MyHC and MyoD in gastrocnemius muscle by Western blotting; conditions: C57BL/6 mice, cisplatin-treated, Pae 10 and Pae 20 vs vehicle
Protocol: as §1, §3, §2

[5] = tested on: NF-κB; assay: Target DNA binding activity of NF-κB in skeletal muscle (TransAM NF-κB ELISA); conditions: gastrocnemius muscle; C57BL/6 mice; cisplatin-treated; Pae 10 and Pae 20; FIG. 12C
Protocol: Nuclear and cytoplasmic lysates were prepared from the skeletal muscle using a nuclear extraction kit (Active Motif, Carlsbad, CA, USA). The protein concentration of both lysates was measured using the BCA Protein Assay Kit (Pierce). Anti-NF-κB p65 was used as the primary antibody, and 10 μg of protein per lysate was analyzed by Western blotting. TBP (TATA box-binding protein) and β-actin were as controls for the nuclear and cytosolic lysates, respectively. The target DNA binding activity of NF-κB was measured using the TransAM NF-κB ELISA kit (Active Motif, USA).

[6] = tested on: GDF-15; assay: GDF-15 by ELISA in C57BL/6 mice with Lewis lung carcinoma-induced cachexia; conditions: Lewis lung carcinoma-injected, paeoniflorin orally for 9 days, FIG. 18
Protocol: Each mouse of the control group was injected subcutaneously with 100 μL of saline solution. For the cachexia-induced groups, Lewis lung carcinoma cells (C57BL/6 mice) or colon-26 carcinoma cells (Balb/c mice) were injected subcutaneously into the flank area of each mouse at a dose of 10^6 cells/100 μL/mouse. […] After completion of 9 days of administration, the muscle strength of the mice was measured using a grip strength test device (Bioseb, USA), and the endurance of the mice was measured using a treadmill device (Columbus Instrument, USA).
After completion of the experiment, the mice were euthanized, blood was collected therefrom, the body weight excluding tumors, and the weights of the hind limb gastrocnemius muscle and quadriceps muscle were measured. GDF-15 in the serum was quantified by ELISA.
After oral administration of paeoniflorin to the tumor-induced mice for 9 days, blood was collected from the mice, and the plasma concentration of GDF-15 protein was analyzed by ELISA.

In the case of C[C@@]12C[C@@]3(O)O[C@@H](O1)[C@]1(COC(=O)c4ccccc4)[C@H]3C[C@@]12O[C@@H]1O[C@H](CO)[C@@H](O)[C@H](O)[C@H]1O [paeoniflorin], the muscle strength ([1]; FIG. 4A) is reported as “similarly restored”, the endurance ([1]; FIG. 4B) is reported as “similarly restored” and the “MAFbx mRNA level” value [2] is reported as “decreased”. The “MuRF1 mRNA level” value [2] was “decreased”, the MuRF1 protein level ([3]; FIG. 6A) was “decreased” and the MAFbx protein level ([3]; FIG. 6B) was “decreased”. The MyHC protein level ([4]; FIGS. 6C, 7A) was “increased”, the MyoD protein level ([4]; FIGS. 6D, 7B) was “increased” and the “target DNA binding activity of NF-κB” value [5] was “decreased”. For the same molecule, the “serum concentration of GDF-15” value [6] was “significantly decreased”.
